US20130143825A1, “COMPOUNDS FOR USE IN THE TREATMENT OF DISEASES BASED ON THE EXPRESSION OF TOXIC TRANSCRIPTS” (UNIVERSITAT DE VALENCIA, priority 2010, published 2013)
Non-standard residues stand in square brackets, D forms with d. No end group written: not given here.

Tests used:
[1] = system: 103Y-Gal4/+;UAS-CTG(480)/+ flies; test: Lethality phenotype in pupae caused by expression of 480 CTG under 103Y-Gal4 (females born); type: in vivo, Drosophila; parameters: key to Treated born/Control born: —: - indicates that no females were born, in neither the control tubes and the treated tubes; settings: 80 μM; females born vs DMSO control; * p-value <0.05
Description: The 120 vials that make up the chemical library were individually assayed on the lethality phenotype in pupae caused by the expression of 480 CTG under the control of 103Y-Gal4 at a concentration of 80 μM. […] Thus, for positions O1, O2, O3, O4, O5 and O6 of the hexapeptide, a total of six, three, six, four, two and seven active amino acids were obtained, respectively (FIG. 2A). In order to perform the deconvolution, 10 of these 28 amino acids were selected, on the basis of their degree of activity in the biological assay (FIG. 2A). Finally, of the possible combinations, 16 sequences were selected to perform the synthesis of the defined hexapeptides (FIG. 2B). The selection of these 16 peptides was based on redundancy criteria between the physical and chemical properties of active amino acids in similar positions.
At 250 μM, the activity of the peptide decreased, possibly due to a toxic effect of the peptide at higher concentrations.
In order to determine the contribution of each of the p10 residues to their activity on CTG(480), an alanine scanning experiment was performed. These experiments are based on substituting every amino acid of the peptide with alanine and keeping the rest. Alanine is a small amino acid and, in general, not very active; this is why it is used for this type of studies. Since each alanine substitution examines the contribution of an individual amino acid, this experiment makes it possible, on the one hand, to evaluate whether p10 is susceptible to optimisation (in the event that a substitution increases the efficacy of the molecule), or to determine which amino acids are important for its function (in the event that a substitution decreases the activity thereof). The sequence of p10 allows for 5 substitutions; for this reason, 5 new hexapeptides were synthesised which were assayed in relation to the lethality phenotype in 103Y-Gal4; UAS-CTG(480)/+ flies and commercial food.

[2] = system: 2-AP-(CUG)23 RNA; test: 2-aminopurine fluorescence assay (hairpin opening); type: biochemical; settings: 100 μM
Description: Measurements of the fluorescence emitted (Y-axis), measured as relative fluorescence units (RFU), by 2-aminopurine in a (CUG)23 RNA (1 μM) in the presence of MblZF (0.1 μM, 1 μM, 2 μM and 5 μM) (A) or p10 (0.1 μM, 1 μM, 2 μM, 5 μM and 100 μM) (B), relative to the fluorescence emitted by the free RNA. p10 caused a 2.9-increase in the fluorescence of 2-AP at 100 μM, which indicates a change towards single-stranded. This effect was not observed when incubating the RNA with DMSO, or with the alanine scanning peptides with sequences: ppyawa and payawe (C).
In order to confirm whether said changes cause a loss of the hairpin loop structure, an experiment was performed using an RNA composed of 23 CUG repeats, wherein a guanine had been substituted with its analogue 2-aminopurine (2-AP-(CUG)23). When 2-AP is in a single-stranded environment, it emits fluorescence at 375 nm. […] However, upon increasing the concentration of p10 to 100 μM (RNA:peptide 1:100), the 2AP-(CUG)23 RNA underwent a conformational change, from double-stranded to single-stranded, with a 2.9-fold increase in the fluorescence emission of the molecule (FIG. 28B). In order to confirm the specificity of this effect, the same experiment was performed, incubating the alanine scanning peptides (payawe and ppyawa) with the 2-AP-(CUG)23 RNA at the same concentration as p10 (100 μM).
As may be observed in FIG. 29, in this example we use the 2-aminopurine assay in order to assay 4 peptides (p11, p5, p12 and p15) in addition to p10, obtained from the deconvolution of the combinatorial peptide library explained in this invention. […] The concentration used in all cases is 100 μM.

[3] = system: GMR-Gal4 UAS-CTG(480) flies; test: Endogenous expression of p10-derived peptides (Gal4/UAS), rough eye phenotype; type: in vivo, Drosophila
Source text: Thus, three different transgenes were designed, with SEQ ID NO: 17-19 (p17-p19), which encoded different peptides, all based on sequence SEQ ID NO: 10 corresponding to p10 (FIG. 9), taking into consideration the codon usage bias in Drosophila (i.e. favouring the use of G, and in particular C, in the synonymous sites; Powell & Moriyama, 1997) and adding an initial Methionine, as well as three spacer Glycines, to sequence SEQ ID NO: 10. Moreover, upstream from the […] initiation codon, 21 nucleotides of the 5′UTR end of the act5C gene of Drosophila which included the Kozak sequence were added, in order to enhance the expression of the transgenes.
p17 contained the direct sequence of the peptide of SEQ ID NO: 10. As discussed above, the peptides in the hexapeptide chemical library are composed of D-amino acids. The D-forms (dextrogyre) of amino acids are stereoisomers of the L-forms (levogyres) and only L-amino acids are synthesised in the cells and incorporated into proteins. Consequently, if the arrangement of the lateral chains of p10 is important for the function thereof, the latter would be lost when p17 is synthesised by Drosophila from L-aa. For this reason, it was decided to generate construct p18, wherein the peptide sequence of SEQ ID NO: 10 was inverted, leading to a retro-inverse peptide (Chorev & Goodman, 1995; P. M. Fischer, 2003). At the time when these transgenes were generated, the smallest constructs described in the literature encoded peptides with more than 20 amino acids, which is more than twice the size of peptides p17 and p18 (which have only ten amino acids). For this reason, construct p19 was generated, which combined the constructs of peptides p17 and p18, leading to a peptide with 19 amino acids. The three constructs were microinjected in the precursors of the germinal line of Drosophila embryos, leading to 10 lines of transgenic flies for each transgene.
The transgenic flies obtained were crossed with the GMR-Gal4 UAS-CTG(480)/CyO and Mhc-Gal4 UAS-CTG(480)/TM6b recombinant fly lines generated during this invention, which directed the expression of the CTG repeats in the eye and the muscle, respectively. As in the case of the sev-Gal4 UAS-CTG(480)/+ flies, the adult GMR-Gal4 UAS-CTG(480)/UAS-GFP flies presented a strong rough eye phenotype. […] However, the opposite phenomenon occurred at 25° C. and at 29° C. […] Given that changes in temperature affect the expression of the CTG(480) transgenes and peptides p17-p19 in a different manner, since the latter are inserted in different regions of the genome, there may be a relation between the quantity of peptide and of repeats that must be reached, whereafter p10 becomes toxic.

## p9: defined hexapeptide obtained following deconvolution of the D-amino acid combinatorial library ([dP][dP][dY][dA][dQ][dE])
[1]
  Treated born/Control born: 2.0

## p2: defined hexapeptide obtained following deconvolution of the D-amino acid combinatorial library ([dC][dP][dY][dA][dW][dE])
[1]
  Treated born/Control born: —

## p3: defined hexapeptide obtained following deconvolution of the D-amino acid combinatorial library ([dC][dP][dY][dT][dQ][dE])
[1]
  Treated born/Control born: 0.8

## p13: defined hexapeptide obtained following deconvolution of the D-amino acid combinatorial library ([dP][dQ][dY][dA][dQ][dE])
[1]
  Treated born/Control born: 0.8

## p7: defined hexapeptide obtained following deconvolution of the D-amino acid combinatorial library ([dC][dQ][dY][dT][dQ][dE])
[1]
  Treated born/Control born: 1.4

## p12: defined hexapeptide obtained following deconvolution of the D-amino acid combinatorial library ([dP][dP][dY][dT][dW][dE])
[1]
  Treated born/Control born: 3.0
[2]
  destructuration of CUG23 probe, comparative 2-aminopurine assay: significant levels of specificity and efficacy

## p17: endogenously expressed ten amino acid peptide: initial Methionine, three spacer Glycines and the direct sequence of p10 (MGGGPPYAWE)
[3]; 19° C. and 21° C.
  rough eye phenotype on co-expression with CTG(480): not
[3]; in vivo
  transgenic lines assayed that modified the phenotype of GMR-Gal4 UAS-CTG(480) flies: none of the five lines

## p11: defined hexapeptide obtained following deconvolution of the D-amino acid combinatorial library ([dP][dP][dY][dT][dQ][dE])
[1]
  Treated born/Control born: 0.8
[2]
  destructuration of CUG23 probe, comparative 2-aminopurine assay: significant levels of specificity and efficacy

## p1: defined hexapeptide obtained following deconvolution of the D-amino acid combinatorial library ([dC][dP][dY][dA][dQ][dE])
[1]
  Treated born/Control born: 0.3
